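Test compounds were applied to cells in 96-well plates for 48 hours at 5 doses. GI50 = concentration required for 50% inhibition of growth.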 Active and inactive are the calls of the source. Cut-off read from the data, not from the text of the source: active = GI50 up to about 1.1 µM and inactive = higher.
Columns and labels:
Test in all cases: inhibition of tumour cell growth, NCI panel, 48 h
MDA-N = test system: MDA-N
IGROV-1 = test system: IGROV-1
KM-20L2 = test system: KM-20L2
A549 = test system: A549
SK-MEL-28 = test system: SK-MEL-28
NCI-H460 = test system: NCI-H460
MOLT-4 = test system: MOLT-4
RXF 393 = test system: RXF 393
ACHN = test system: ACHN
HOP-92 = test system: HOP-92
HL-60 = test system: HL-60
SK-MEL-2 = test system: SK-MEL-2
HCT-116 = test system: HCT-116
UO-31 = test system: UO-31
SF-539 = test system: SF-539
OVCAR-5 = test system: OVCAR-5
DLD-1 = test system: DLD-1
CCRF-CEM = test system: CCRF-CEM
SNB-19 = test system: SNB-19
CAKI-1 = test system: CAKI-1

Measured: GI50

O=C1C(=O)N(c2cccc(C(F)(F)F)c2)C(=O)C(=O)C1c1nc2ccccc2s1
inactive: MDA-N > 100 µM | IGROV-1 > 81.7 µM | KM-20L2 > 100 µM | A549 > 100 µM | SK-MEL-28 > 100 µM | NCI-H460 > 100 µM | MOLT-4 43.3 µM | RXF 393 > 100 µM | ACHN > 65.2 µM | HOP-92 > 100 µM | HL-60 31.8 µM | SK-MEL-2 > 100 µM | HCT-116 43.8 µM | UO-31 79.8 µM | SF-539 > 100 µM | OVCAR-5 > 100 µM | DLD-1 74.3 µM | CCRF-CEM 24.5 µM | SNB-19 > 100 µM | CAKI-1 > 100 µM

CCOC(=O)C1=C(OC(OCC)C(CC)[Se]c2ccccc2)CCC1 (stereo not drawn)
inactive: IGROV-1 25.6 µM | KM-20L2 29.8 µM | A549 77.4 µM | SK-MEL-28 32.3 µM | NCI-H460 39.7 µM | MOLT-4 20.1 µM | RXF 393 19.5 µM | ACHN 32.2 µM | HOP-92 19.3 µM | HL-60 12.4 µM | SK-MEL-2 31.5 µM | HCT-116 20.4 µM | UO-31 28.9 µM | SF-539 19.8 µM | OVCAR-5 23.1 µM | DLD-1 19.3 µM | CCRF-CEM 11 µM | SNB-19 42.2 µM | CAKI-1 44.2 µM

O=C(Cc1ccccc1[N+](=O)[O-])C(CO)c1ccccc1[N+](=O)[O-] (stereo not drawn)
inactive: IGROV-1 > 100 µM | KM-20L2 > 100 µM | A549 72.1 µM | SK-MEL-28 > 100 µM | NCI-H460 96.8 µM | MOLT-4 35.7 µM | RXF 393 92.5 µM | ACHN 38.2 µM | HOP-92 23.6 µM | HL-60 67.1 µM | SK-MEL-2 > 100 µM | HCT-116 70.5 µM | UO-31 19.9 µM | SF-539 > 100 µM | OVCAR-5 > 100 µM | DLD-1 > 100 µM | CCRF-CEM 71.4 µM | SNB-19 > 100 µM | CAKI-1 40.5 µM

CSc1nc(NC2OC(COC(C)=O)C(OC(C)=O)C(OC(C)=O)C2OC(C)=O)c(/N=C\C=N/c2c(NC3OC(COC(C)=O)C(OC(C)=O)C(OC(C)=O)C3OC(C)=O)nc(SC)n(C)c2=O)c(=O)n1C (stereo not drawn)
inactive: MDA-N > 100 µM | IGROV-1 65.8 µM | KM-20L2 > 100 µM | A549 > 100 µM | SK-MEL-28 > 100 µM | NCI-H460 > 100 µM | MOLT-4 > 100 µM | RXF 393 17.9 µM | ACHN 83.9 µM | HOP-92 25.9 µM | HL-60 > 100 µM | SK-MEL-2 32.7 µM | HCT-116 > 100 µM | UO-31 > 100 µM | SF-539 38 µM | OVCAR-5 > 100 µM | DLD-1 > 100 µM | CCRF-CEM > 100 µM | SNB-19 38.6 µM | CAKI-1 > 7.23 µM
